Measurements from patent US10906909B2, “Treatment of cognitive and mood symptoms in neurodegenerative and neuropsychiatric disorders with ALPHA5-containing GABAA receptor agonists” (UWM Research Foundation, Inc., priority 2016, dated 2021).
Entries after “also recorded” stand apart in the source; their conditions may differ.

Assays:
[1] = system: 18 months-old mice; experiment: Y-maze alternation task, old mice; type: in vivo, mouse; conditions: 5 mg/kg i.p. 30 min before testing
Method: C57/B16 male mice males were ordered from Jackson Laboratories at 10 months-old and were kept in normal housing conditions (12 h light ON cycle starting at 7 am/water and food ad libitum) until they reached the age of 18 months. A younger cohort of 8 week old animals was used as controls for the experiment. Before testing animals were handled to reduce the anxiety-like response toward the experimenter. Normal aging induced-working memory deficits were assessed using the Y-maze test as described below.
Mice were first habituated to the Y-maze apparatus and distal cues during 2 consecutive days over a 10 min free exploration session (one session per day). The next day, animals performed a training session consisting in seven successive trials separated by a 30 s inter-trial interval (ITI); during this training session, mice were familiarized with the experimental procedure (opening and closing of the doors and confinement into the goal arms). […] Then, the door was opened and the mouse was allowed to enter freely one of the two goal arms; the chosen arm was closed and the choice was recorded. […]
The same general procedure used in the training session was implemented 24 h later, except that the ITI was lengthened to 90 s. […] The mean alternation rate was calculated and was expressed in percentage (number of alternation done by the animal/total number of alternation possible×100)±SEM. […]

[2] = system: rats; experiment: Social novelty discrimination (SND); type: in vivo, rat; conditions: 10 mg/kg
Method: The SND test compares the social investigation times of an adult rat with a familiar and a novel juvenile rat. Testing consisted of two consecutive juvenile presentations periods to an adult subject: period 1 (P1) and period 2 (P2). At the beginning of P1, one juvenile was placed into the adult home cage and the time spent by the adult investigating the juvenile (anogenital sniffing, licking, close pursuing and pawing) was recorded manually for 5 min. During P2, the same juvenile and a second, novel juvenile were placed in the cage together with the adult, and the times spent by the adult investigating each juvenile were measured independently for 3 min. A different pair of juvenile rats was presented to each adult tested. Manual scoring was conducted in a blinded manner. SND was deliberately impaired in control rats by the parametric manipulation applied, as there was 30 min delay between P1 and P2, and their SND was expected to be low. The influence of MP-III-022 (1, 2.5 or 10 mg/kg) on the thus induced impairment in SND was examined. There were five groups of rats which received one of the following treatments 20 min before P1: solvent, 1.5 mg/kg diazepam and 1, 2.5 and 10 mg/kg MP-III-022. The amount of time investigating familiar (Tf) and novel (Tn) juvenile during P2 was manually scored, and discrimination indexes (Tn−Tf/Tn+Tf) was calculated. Total exploration time during P1 and P2 was also manually recorded.

[3] = Wistar rats, Stamenic et al. 2016, cited from earlier work
[4] = system: rats; experiment: Morris water maze; type: in vivo, rat
Method: The potential of MP-III-022 to affect cognitive performance of rats was assessed in 2 well-validated behavioral models. First, Morris water maze experiments were performed in a 2 m diameter circular pool filled to a height of 30 cm with water at 22±1° C. The escape platform (15 cm×10 cm) was submerged 2 cm below the water surface. All experimental details were as described in Savic et al. (Int. J. Neuropsychopharmacol. 2009, 12, 1179-1193). On each of the five consecutive days rats were given one swimming block, consisting of four trials. For each trial the rat was placed in the water at one of four pseudo-randomly determined starting positions. Once the rat has found and mounted the escape platform it was permitted to remain on the platform for 15 s. […] During the acquisition phase, treatments were applied once daily before the swimming block. On the sixth day, rats were given a treatment-free probe test (60 s) without the platform. The probe test was started from the novel, most distant location. Dependent variables chosen for tracking during the acquisition trials were: escape latency (s), total distance traveled (m), path efficiency (the ratio of the shortest possible path length to actual path length), % of distance swam in the peripheral annulus and mean speed (m/s). The selected parameters in the probe test were the distance swam in the target zone […] and % of the distance swam in the peripheral annulus. We tested the effects of 1, 2.5 and 10 mg/kg MP-III-022 and 2 mg/kg diazepam as control drug. The doses of MP-III-022 were selected so that they elicit a mild, moderate and strong positive modulation of α5GABAARs, respectively, in accordance with the analysis of thorough pharmacokinetic and electrophysiological data presented in Stamenic et al. (Eur. J. Pharmacol. 2016, 791, 433-443). The data from the acquisition days in the Morris water maze were averaged for each rat (total data/total number of trials per day) and analyzed using two-way ANOVA with repeated measures (factors: Treatment and Days) with Days as the repeated measure. In the case of significant interaction, separate one-way ANOVAs were conducted to assess the influence of treatment within individual levels of factor Days. The data from the probe test were assessed using one-way ANOVA.

Row | Structure (SMILES) | effect on age-induced working memory impairment (percent alternation rate, Y-maze) [1] | discrimination index (social novelty discrimination) ([2]; 20 min before P1, one-sample t-test vs zero) | time exploring the familiar and the novel juvenile rat during P2 ([2]; 20 min before P1, paired t-test) | terminal elimination half-life t1/2, brain ([3]; i.p. single dose) | terminal elimination half-life t1/2, plasma ([3]; i.p. single dose) | systemic and brain exposure ([3]; single i.p. dose) | spatial learning and memory (water maze, probe test) ([4]; 1 mg/kg) | escape latency, distance, distance in peripheral ring, path efficiency (acquisition) ([4]; 1 mg/kg vs 2 mg/kg diazepam and 10 mg/kg MP-III-022 groups) | path efficiency on Day II ([4]; 1 mg/kg, Day II of acquisition) | spatial learning during acquisition in the water maze ([4]; MP-III-022 10 mg/kg once daily before swimming block) | spatial learning and memory (water maze, probe test) ([4]; high doses)
1 | C#Cc1ccc2c(c1)C(c1ccccc1F)=N[C@H](C)c1c(C(=O)N(C)C)ncn1-2 [GL-II-73, (R)-8-ethynyl-6-(2-fluorophenyl)-N,N,4-trimethyl-4H-benzo[f]imidazo[1,5-a][1,4]diazepine-3-carboxam] | significant reversal of age-induced impairment in working memory; also recorded: significant pro-cognitive effect |  |  |  |  |  |  |  |  |  | 
2 | C#Cc1ccc2c(c1)C(c1ccccc1F)=N[C@H](C)c1c(C(=O)NC3CC3)ncn1-2 [GL-II-75, (R)—N-cyclopropyl-8-ethynyl-6-(2-fluorophenyl)-4-methyl-4H-benzo[f]imidazo[1,5-a][1,4]diazepine-3-carboxamide] | significant reversal of age-induced impairment in working memory; also recorded: significant pro-cognitive effect |  |  |  |  |  |  |  |  |  | 
3 | C#Cc1ccc2c(c1)C(c1ccccc1F)=N[C@H](C)c1c(C(=O)NC)ncn1-2 [MP-III-022] |  | significant differences from zero | spent significantly more time in exploring the new rat | 70 min | 35 min | excellent systemic and brain exposure | significant improvement in spatial learning and memory processes | shorter escape latencies, shorter distances, swam less distance in the peripheral ring and had higher path efficiencies | higher path efficiencies compared to the control and all other treatment groups | spatial learning incapacitation indistinguishable from that induced by diazepam 2 mg/kg | mimic the cognitive disruption effect of diazepam
